In test [1] the test system is adipocytes (3T3-L1) and myotubes (C2C12). As to the kind of experiment: Fatty acid oxidation and dose-response screening, cell type not stated. The format is cell-based, mouse. As to conditions: leucine 0.5 mM, HMB 5 μM, resveratrol 200 nM, myo-inositol 100 nM; cell type not stated.
Another test relates to diet-induced obese mice. As to the kind of experiment: Diet-induced obese mice fed resveratrol, HMB, leucine: weight, adiposity, fat oxidation, insulin sensitivity (Example 1). The test is classed as in vivo, c57/BL6 mice. The settings on record: for Weight: 6 weeks on high-fat diet; for Glucose / Insulin: plasma. The protocol:
Six week old male c57/BL6 mice were fed a high-fat diet with fat increased to 45% of energy (Research Diets D12451) for 6 weeks to induce obesity.
The animals were housed in polypropylene cages at a room temperature of 22±2° C. and regime of 12 h light/dark cycle. The animals had free access to water and their experimental food throughout the experiment. At the of the treatment period (6 weeks) all animals were humanely euthanized, and blood and tissues collected for further experiments.
at the end of the obesity induction period (day 0 of treatment group) and at 2 weeks and 6 weeks of treatment, oxygen consumption and substrate utilization was measured via metabolic chambers using the Comprehensive Lab Animal Monitoring Systems (CLAMS, Columbus Instruments, Columbus, Ohio) in subgroups of each treatment group. Each animal was placed in individual cages without bedding that allow automated, non-invasive data collection. Each cage is an indirect open circuit calorimeter that provides measurement of oxygen consumption, carbon dioxide production, and concurrent measurement of food intake. All mice were acclimatized to the chambers for 24 hours prior to the experiment and maintained under the regular 12:12 light:dark cycle with free access to water and food. All experiments were started in the morning and data were collected for 24 hours. Each chamber was passed with 0.61 of air/min and was sampled for 2 min at 32-minute intervals. Exhaust O2 and CO2 content from each chamber was compared with ambient O2 and CO2 content. Food consumption was measured by electronic scales.
at the end of the treatment period (6 weeks of treatment) subgroups of each treatment diet group (5 animals/group, 35 animals total) were used to measure whole body glucose and palmitate uptake via PET/CT Imaging. To visualize these compounds using microPET imaging, the glucose or palmitate was labeled with fluorine-18 (108 mins half-life) or carbon-11 (20 mins half-life), respectively. Each mouse was fasted for 4 hours, then anesthetized using 1-3% isoflurane delivered by nose cone or in a mouse-sized induction chamber purpose-built for small animal imaging protocols. While under anesthesia the mice were injected iv with <2 mCi of each tracer, then be left for a period of time (minutes to up ˜1 hour) to allow the uptake of the tracer. During the scan, mice were kept warm using a thermostatically controlled heated bed and were treated with ophthalmic ointment prior to scanning Following the live scan the mice were returned to their cage and revived. Mice were monitored constantly during this time. Following live data acquisition the mice were sacrificed by isoflurane overdose and organs harvested for further experiments.

The next test addresses T1, Sirt1 (Mus musculus, UniProt Q923E4).
T1 construct: endogenous in cells; host or cells: differentiated 3T3-L1 adipocytes and C2C12 myotubes (lysates)
T1 sequence (Q923E4 1-737): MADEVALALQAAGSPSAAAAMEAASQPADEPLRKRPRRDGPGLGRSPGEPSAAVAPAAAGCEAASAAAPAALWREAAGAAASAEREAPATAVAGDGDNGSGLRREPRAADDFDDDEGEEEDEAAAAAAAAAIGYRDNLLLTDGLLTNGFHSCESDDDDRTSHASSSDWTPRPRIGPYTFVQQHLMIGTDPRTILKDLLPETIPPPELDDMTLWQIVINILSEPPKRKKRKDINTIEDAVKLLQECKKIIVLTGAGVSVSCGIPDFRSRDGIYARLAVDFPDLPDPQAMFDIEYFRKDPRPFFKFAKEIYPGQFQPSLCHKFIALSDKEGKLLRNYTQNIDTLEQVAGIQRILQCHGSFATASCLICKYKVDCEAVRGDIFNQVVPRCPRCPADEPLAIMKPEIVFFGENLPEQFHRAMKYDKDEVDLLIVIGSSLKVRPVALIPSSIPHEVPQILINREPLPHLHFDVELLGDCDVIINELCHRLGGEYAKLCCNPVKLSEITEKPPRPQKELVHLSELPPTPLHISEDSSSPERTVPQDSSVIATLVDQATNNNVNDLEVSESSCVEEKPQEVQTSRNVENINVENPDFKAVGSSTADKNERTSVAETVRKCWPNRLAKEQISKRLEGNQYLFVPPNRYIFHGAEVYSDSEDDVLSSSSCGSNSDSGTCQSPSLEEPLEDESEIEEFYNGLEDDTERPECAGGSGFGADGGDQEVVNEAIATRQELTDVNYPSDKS
As to the kind of experiment: Sirt1 activity (SIRT1 Fluorimetric Drug Discovery Kit) in treated cells. The settings on record: leucine 0.5 mM, HMB 5 μM, resveratrol 200 nM, alone or combined; cell type not stated. The format is cell-based. The protocol: SIRT1 activity was measured by using the SIRT1 Fluorimetric Drug Discovery Kit (BML-AK555, ENZO Life Sciences International, Inc. PA, USA). The assay measures SIRT1 activity by the degree of deacetylation of a standardized substrate containing an acetylated lysine side chain. The substrate utilized is a peptide containing amino acids 379-382 of human p53 (Arg-His-Lys-Lys[Ac]), an established target of SIRT1 activity; SIRT1 activity is directly proportional to the degree of deacetylation of Lys-382. Samples were incubated with peptide substrate (25 μM), and NAD^+ (500 μM) in a phosphate-buffered saline solution at 37° C. on a horizontal shaker for 45 minutes. […] Following 10 minutes incubation at 37° C., fluorescence was read in a plate-reading fluorometer (Synergy HT, BioTek Instruments, Winooski, Vt.) at an excitation wavelength of 360 nm and an emission wavelength of 450 nm. […]
Sirt1 activity was measured by using the Sirt1 Fluorimetric Drug Discovery Kit (BML-AK555, ENZO Life Sciences Inc., Farmingdale, N.Y., USA). […] Sirt1 activity was assessed by the degree of deacetylation of a standardized substrate containing an acetylated lysine side chain. […] Following 10 minutes incubation at 37° C., fluorescence was read in a plate-reading fluorimeter with excitation and emission wavelengths of 360 nm and 450 nm, respectively. […] Sirt1 activity was measured in a modified assay using 5 μl of cell lysate. […]

Consider 1 molecule from patent US20180235917A1, “COMPOSITIONS, METHODS AND KITS FOR TREATMENT OF DIABETES AND/OR […]” (NuSirt Sciences, Inc., priority 2014, published 2018).

Marks after values point to notes of the source that are not given here.

On to `Oc1ccc(/C=C/c2cc(O)cc(O)c2)cc1` [Resveratrol, 3,5,4′-Trihydroxy-trans-stilbene], for which the “increase in fatty acid oxidation” value in test [1] was “no effect”. Further, the Weight with diet-induced obese mice (High Resveratrol 225 mg/kg diet, or Low Resv 12.5 mg/kg + High HMB 10 g CaHMB/kg diet) is 38.7 ± 1.2^a g. In addition, the Weight with diet-induced obese mice (low doses: resveratrol 12.5 mg/kg diet, CaHMB 2 g/kg diet, leucine 2.42% of diet) was 40.8 ± 2.5^a g. In addition, in the test on diet-induced obese mice (high doses as E2), the “Fat oxidation (PET palmitate uptake; Muscle SUV)” value is given as 2.29 ± 0.11^b SUV, the HOMAIR is on record as 0.59 ± 0.26^b, the “Heat Production” value is 0.552 ± 0.015^b and the “Muscle Glucose Uptake (^18F-deoxyglucose SUV)” value was 3.87 ± 0.32^a SUV. For the same molecule, in the test on diet-induced obese mice (high doses as E2), the “Visceral Adipose Volume” value is on record as 6031 ± 323^a mm^3, the Weight gain is 22.3 ± 2.4^a g, the Glucose is 5.14 ± 0.75^a mM and the Insulin is 10.1 ± 2.7^a μU/mL. Besides, in the test with diet-induced obese mice (low doses as E1), the “Fat oxidation (PET palmitate uptake; Muscle SUV)” value is reported as 1.51 ± 0.44^a SUV, the HOMAIR is on record as 2.41 ± 0.66^a, the “Heat Production” value is 0.517 ± 0.014^a and the “Muscle Glucose Uptake (^18F-deoxyglucose SUV)” value is listed as 3.63 ± 1.29^a SUV. Also, in the test with diet-induced obese mice (low doses as E1), the “Visceral Adipose Volume” value is listed as 6551 ± 575^a mm^3, the Weight gain is listed as 20.9 ± 1.5^a g, the Glucose is 5.14 ± 0.85^a mM and the Insulin is recorded as 10.4 ± 1.6^a μU/mL. Moreover, the “stimulation of Sirt1 activity” value at Sirt1 is “no effect”.
